Legend:
Experiment in all cases: KINOMEscan competition binding
Conditions in all cases: compound 10.0 µM
[1] = target: BLK (human) (UniProt P51451)
[2] = target: CDK14 (human) (UniProt O94921)
[3] = target: CHUK (human) (UniProt O15111)
[4] = target: CSF1R (human) (UniProt P07333)
[5] = target: CSNK1E (human) (UniProt P49674)
[6] = target: CSNK1G2 (human) (UniProt P78368)
[7] = target: CSNK1G3 (human) (UniProt Q9Y6M4)
[8] = target: DCLK2 (human) (UniProt Q8N568)
[9] = target: EPHA8 (human) (UniProt P29322)
[10] = target: ERBB4 (human) (UniProt Q15303)
[11] = target: FER (human) (UniProt P16591)
[12] = target: FGFR1 (human) (UniProt P11362)
FGFR1 (human), sequence (P11362 whole entry, looked up): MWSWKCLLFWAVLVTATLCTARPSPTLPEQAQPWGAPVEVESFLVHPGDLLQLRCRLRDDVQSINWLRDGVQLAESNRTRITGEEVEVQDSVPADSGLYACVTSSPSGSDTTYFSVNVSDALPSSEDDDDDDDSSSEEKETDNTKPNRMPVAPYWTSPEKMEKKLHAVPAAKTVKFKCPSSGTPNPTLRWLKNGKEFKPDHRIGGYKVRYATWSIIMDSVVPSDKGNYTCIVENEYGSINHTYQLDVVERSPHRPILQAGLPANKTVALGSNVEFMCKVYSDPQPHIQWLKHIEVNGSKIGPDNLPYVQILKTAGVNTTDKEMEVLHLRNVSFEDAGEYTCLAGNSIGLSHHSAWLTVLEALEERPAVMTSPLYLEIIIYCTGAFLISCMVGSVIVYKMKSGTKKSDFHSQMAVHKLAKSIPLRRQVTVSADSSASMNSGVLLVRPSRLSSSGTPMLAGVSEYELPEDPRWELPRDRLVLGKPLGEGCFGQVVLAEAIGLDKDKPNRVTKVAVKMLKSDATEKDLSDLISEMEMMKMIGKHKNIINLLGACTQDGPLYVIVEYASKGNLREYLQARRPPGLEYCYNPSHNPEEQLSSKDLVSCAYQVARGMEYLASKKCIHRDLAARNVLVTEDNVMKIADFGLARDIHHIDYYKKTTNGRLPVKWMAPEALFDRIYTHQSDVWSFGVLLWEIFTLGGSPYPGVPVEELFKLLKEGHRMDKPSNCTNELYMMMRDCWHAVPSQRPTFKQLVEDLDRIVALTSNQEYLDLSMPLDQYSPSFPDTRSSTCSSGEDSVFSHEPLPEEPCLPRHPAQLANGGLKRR

[13] = target: GAK (human) (UniProt O14976)
GAK (human), sequence (O14976 whole entry, looked up): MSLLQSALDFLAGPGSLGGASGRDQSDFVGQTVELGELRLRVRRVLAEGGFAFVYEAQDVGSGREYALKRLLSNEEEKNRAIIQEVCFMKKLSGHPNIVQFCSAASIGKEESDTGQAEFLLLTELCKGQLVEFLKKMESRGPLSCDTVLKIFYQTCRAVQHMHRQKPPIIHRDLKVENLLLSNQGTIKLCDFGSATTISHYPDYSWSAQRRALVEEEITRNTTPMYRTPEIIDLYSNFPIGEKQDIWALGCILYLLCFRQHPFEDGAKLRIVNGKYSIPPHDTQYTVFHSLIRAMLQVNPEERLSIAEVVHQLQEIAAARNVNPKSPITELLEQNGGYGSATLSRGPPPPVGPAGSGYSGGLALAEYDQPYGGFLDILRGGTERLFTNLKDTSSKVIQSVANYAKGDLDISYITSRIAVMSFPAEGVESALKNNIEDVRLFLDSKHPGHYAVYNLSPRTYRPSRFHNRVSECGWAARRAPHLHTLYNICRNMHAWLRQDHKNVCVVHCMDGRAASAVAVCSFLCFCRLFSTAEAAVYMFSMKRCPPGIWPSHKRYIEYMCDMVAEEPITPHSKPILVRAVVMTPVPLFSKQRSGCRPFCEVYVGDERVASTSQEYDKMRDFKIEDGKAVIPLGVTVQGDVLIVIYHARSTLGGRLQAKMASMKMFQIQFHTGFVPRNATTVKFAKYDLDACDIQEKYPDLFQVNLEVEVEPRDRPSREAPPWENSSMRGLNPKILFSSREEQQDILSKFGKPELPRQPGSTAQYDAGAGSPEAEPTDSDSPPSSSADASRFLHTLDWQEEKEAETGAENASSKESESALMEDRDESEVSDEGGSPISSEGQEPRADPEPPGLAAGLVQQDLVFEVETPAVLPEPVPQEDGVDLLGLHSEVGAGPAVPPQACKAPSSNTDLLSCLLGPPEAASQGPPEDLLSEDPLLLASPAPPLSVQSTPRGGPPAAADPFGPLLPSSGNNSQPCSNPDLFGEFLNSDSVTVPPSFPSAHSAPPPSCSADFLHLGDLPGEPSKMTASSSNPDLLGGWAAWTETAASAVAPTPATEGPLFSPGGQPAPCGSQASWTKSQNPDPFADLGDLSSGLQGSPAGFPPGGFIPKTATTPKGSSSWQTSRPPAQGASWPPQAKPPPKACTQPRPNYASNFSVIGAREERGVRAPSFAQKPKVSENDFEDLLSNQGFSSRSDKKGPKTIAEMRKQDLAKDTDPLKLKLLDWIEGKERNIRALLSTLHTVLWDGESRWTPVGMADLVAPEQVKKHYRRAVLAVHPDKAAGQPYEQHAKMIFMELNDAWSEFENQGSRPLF

[14] = target: HIPK2 (human) (UniProt Q9H2X6)
[15] = target: IKBKB (human) (UniProt O14920)
[16] = target: JAK1 JH1 catalytic (human) (UniProt P23458)
JAK1 JH1 catalytic (human), sequence (P23458 whole entry, looked up): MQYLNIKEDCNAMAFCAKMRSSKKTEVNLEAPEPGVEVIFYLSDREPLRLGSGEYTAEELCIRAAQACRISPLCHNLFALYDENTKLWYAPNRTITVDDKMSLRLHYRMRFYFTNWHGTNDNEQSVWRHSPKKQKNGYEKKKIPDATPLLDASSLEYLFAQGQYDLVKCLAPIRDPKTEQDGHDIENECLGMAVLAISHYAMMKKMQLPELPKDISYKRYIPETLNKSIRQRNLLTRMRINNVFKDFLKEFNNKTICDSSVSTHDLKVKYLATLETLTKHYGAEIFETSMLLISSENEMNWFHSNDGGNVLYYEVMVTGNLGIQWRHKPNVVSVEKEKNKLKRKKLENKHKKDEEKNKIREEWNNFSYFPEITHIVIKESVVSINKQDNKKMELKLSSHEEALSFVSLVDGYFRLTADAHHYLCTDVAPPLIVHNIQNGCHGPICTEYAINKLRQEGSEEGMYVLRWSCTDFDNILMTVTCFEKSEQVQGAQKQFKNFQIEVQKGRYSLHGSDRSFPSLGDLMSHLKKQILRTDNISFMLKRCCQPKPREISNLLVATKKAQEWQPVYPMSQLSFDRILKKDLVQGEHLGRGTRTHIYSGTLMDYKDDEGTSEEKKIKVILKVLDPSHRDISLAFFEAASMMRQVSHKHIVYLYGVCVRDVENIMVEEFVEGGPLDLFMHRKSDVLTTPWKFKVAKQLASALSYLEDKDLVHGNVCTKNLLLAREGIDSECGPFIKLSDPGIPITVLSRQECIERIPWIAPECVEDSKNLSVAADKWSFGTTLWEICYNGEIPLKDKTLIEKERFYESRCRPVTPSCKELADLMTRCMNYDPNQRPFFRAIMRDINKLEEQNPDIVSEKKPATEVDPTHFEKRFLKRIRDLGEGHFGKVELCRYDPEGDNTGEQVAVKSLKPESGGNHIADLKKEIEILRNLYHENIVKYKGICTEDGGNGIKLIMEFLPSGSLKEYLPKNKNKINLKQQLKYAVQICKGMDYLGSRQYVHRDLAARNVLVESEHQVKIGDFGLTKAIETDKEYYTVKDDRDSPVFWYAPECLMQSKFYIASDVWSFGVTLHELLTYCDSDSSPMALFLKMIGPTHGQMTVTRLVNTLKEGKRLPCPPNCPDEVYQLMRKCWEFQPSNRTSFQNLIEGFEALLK

[17] = target: JAK3 JH1 catalytic (human) (UniProt P52333)
[18] = target: MAP2K2 (human) (UniProt P36507)
[19] = target: MAP2K3 (human) (UniProt P46734)
[20] = target: MAP3K2 (human) (UniProt Q9Y2U5)
[21] = target: MAPK1 (human) (UniProt P28482)
[22] = target: MAPK9 (human) (UniProt P45984)
[23] = target: MAPKAPK5 (human) (UniProt Q8IW41)
[24] = target: MELK (human) (UniProt Q14680)
[25] = target: MLTK (human) (UniProt Q9NYL2)
[26] = target: MST1R (human) (UniProt Q04912)
[27] = target: NIM1 (human) (UniProt Q8IY84)
[28] = target: NLK (human) (UniProt Q9UBE8)
NLK (human), sequence (Q9UBE8 whole entry, looked up): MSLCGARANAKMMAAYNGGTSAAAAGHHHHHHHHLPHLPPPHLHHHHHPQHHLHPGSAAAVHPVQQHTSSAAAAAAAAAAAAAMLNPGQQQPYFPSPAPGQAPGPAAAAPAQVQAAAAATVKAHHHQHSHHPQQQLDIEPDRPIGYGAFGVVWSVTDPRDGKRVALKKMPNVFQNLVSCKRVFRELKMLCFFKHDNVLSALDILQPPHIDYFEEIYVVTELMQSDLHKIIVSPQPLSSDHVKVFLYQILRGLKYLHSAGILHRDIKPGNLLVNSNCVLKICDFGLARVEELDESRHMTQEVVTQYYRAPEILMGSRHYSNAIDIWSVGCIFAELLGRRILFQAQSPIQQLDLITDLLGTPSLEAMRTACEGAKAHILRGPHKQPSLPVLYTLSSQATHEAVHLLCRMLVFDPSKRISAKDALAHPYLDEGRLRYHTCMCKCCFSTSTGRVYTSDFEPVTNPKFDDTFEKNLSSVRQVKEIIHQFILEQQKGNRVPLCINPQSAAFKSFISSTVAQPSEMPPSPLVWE

[29] = target: PAK6 (human) (UniProt Q9NQU5)
[30] = target: PI4KB (human) (UniProt Q9UBF8)
PI4KB (human), sequence (Q9UBF8 whole entry, looked up): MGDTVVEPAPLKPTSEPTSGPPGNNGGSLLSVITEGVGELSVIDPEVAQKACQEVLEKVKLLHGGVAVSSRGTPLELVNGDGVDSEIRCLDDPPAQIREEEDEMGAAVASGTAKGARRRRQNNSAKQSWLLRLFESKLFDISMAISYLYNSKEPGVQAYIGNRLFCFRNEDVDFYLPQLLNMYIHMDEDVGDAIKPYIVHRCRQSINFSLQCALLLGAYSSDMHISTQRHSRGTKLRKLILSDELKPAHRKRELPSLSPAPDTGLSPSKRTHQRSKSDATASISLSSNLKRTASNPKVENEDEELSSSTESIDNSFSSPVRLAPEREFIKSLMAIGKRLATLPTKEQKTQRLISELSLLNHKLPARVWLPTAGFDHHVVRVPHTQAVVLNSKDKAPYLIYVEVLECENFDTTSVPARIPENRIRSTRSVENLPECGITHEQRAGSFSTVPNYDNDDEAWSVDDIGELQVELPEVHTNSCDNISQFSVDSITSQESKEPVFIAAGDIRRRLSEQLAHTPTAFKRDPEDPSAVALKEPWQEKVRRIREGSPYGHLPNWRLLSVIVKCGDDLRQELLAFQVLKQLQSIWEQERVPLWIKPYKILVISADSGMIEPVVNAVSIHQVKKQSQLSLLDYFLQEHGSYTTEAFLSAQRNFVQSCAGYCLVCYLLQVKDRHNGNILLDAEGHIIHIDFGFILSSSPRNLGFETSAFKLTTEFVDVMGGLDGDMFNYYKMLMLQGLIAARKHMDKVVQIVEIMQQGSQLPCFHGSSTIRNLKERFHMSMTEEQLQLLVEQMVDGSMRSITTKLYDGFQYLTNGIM

[31] = target: PIM3 (human) (UniProt Q86V86)
[32] = target: PIP4K2B (human) (UniProt P78356)
[33] = target: PKN1 (human) (UniProt Q16512)
[34] = target: PRKD2 (human) (UniProt Q9BZL6)
[35] = target: PTK6 (human) (UniProt Q13882)
[36] = target: RIOK1 (human) (UniProt Q9BRS2)
[37] = target: RIPK2 (human) (UniProt O43353)
[38] = target: STK11 (human) (UniProt Q15831)
[39] = target: STK38L (human) (UniProt Q9Y2H1)
[40] = target: TGFBR2 (human) (UniProt P37173)

CDK14 (human), sequence (O94921 whole entry, looked up): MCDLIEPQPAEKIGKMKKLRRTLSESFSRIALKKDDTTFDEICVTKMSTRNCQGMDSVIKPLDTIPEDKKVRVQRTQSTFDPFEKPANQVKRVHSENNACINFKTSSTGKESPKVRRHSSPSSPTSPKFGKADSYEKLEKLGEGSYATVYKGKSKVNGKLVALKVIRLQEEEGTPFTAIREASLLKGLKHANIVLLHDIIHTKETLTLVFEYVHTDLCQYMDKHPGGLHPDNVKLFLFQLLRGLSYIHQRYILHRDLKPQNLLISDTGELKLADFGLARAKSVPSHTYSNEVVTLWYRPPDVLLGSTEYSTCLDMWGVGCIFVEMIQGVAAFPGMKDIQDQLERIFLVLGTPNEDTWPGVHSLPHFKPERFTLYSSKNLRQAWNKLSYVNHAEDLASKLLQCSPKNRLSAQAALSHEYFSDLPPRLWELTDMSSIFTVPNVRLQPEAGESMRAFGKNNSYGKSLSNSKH

SMILES | kinase still bound, per cent of control [1] | kinase still bound, per cent of control [2] | kinase still bound, per cent of control [3] | kinase still bound, per cent of control [5] | kinase still bound, per cent of control [7] | kinase still bound, per cent of control [8] | kinase still bound, per cent of control [9] | kinase still bound, per cent of control [10] | kinase still bound, per cent of control [11] | kinase still bound, per cent of control [12] | kinase still bound, per cent of control [13] | kinase still bound, per cent of control [14] | kinase still bound, per cent of control [15] | kinase still bound, per cent of control [16] | kinase still bound, per cent of control [17] | kinase still bound, per cent of control [18] | kinase still bound, per cent of control [20] | kinase still bound, per cent of control [21] | kinase still bound, per cent of control [22] | kinase still bound, per cent of control [23] | other results
C=CC(=O)Nc1ccc(C(=O)c2sc(Nc3ccc(N4CCN(C)CC4)cc3OC)nc2N)cc1 | 100% | 82% | 59% | 66% | 24% | 28% | 88% | 61% | 82% | 38% | 0.8% | 40% | 85% | 100% | 100% | 89% | 68% | 100% | 7% | 14% | kinase still bound, per cent of control [4]: 58%; kinase still bound, per cent of control [6]: 25%; kinase still bound, per cent of control [19]: 69%; kinase still bound, per cent of control [24]: 87%; kinase still bound, per cent of control [25]: 100%; kinase still bound, per cent of control [26]: 100%; kinase still bound, per cent of control [27]: 91%; kinase still bound, per cent of control [28]: 76%; kinase still bound, per cent of control [29]: 40%; kinase still bound, per cent of control [30]: 18%; kinase still bound, per cent of control [31]: 87%; kinase still bound, per cent of control [32]: 32%; kinase still bound, per cent of control [33]: 97%; kinase still bound, per cent of control [34]: 70%; kinase still bound, per cent of control [35]: 80%; kinase still bound, per cent of control [36]: 37%; kinase still bound, per cent of control [37]: 100%; kinase still bound, per cent of control [38]: 86%; kinase still bound, per cent of control [39]: 68%; kinase still bound, per cent of control [40]: 100%
CCN(CCO)CCCOc1ccc2c(Nc3cc(CC(=O)Nc4cccc(F)c4)[nH]n3)ncnc2c1 | 9.6% | 100% | 100% | 100% | 100% | 100% | 90% | 4% | 100% | 85% | 21% | 31% | 91% | 100% | 87% | 21% | 87% | 100% | 46% | 100% | kinase still bound, per cent of control [4]: 5%; kinase still bound, per cent of control [6]: 76%; kinase still bound, per cent of control [24]: 47%; kinase still bound, per cent of control [25]: 63%; kinase still bound, per cent of control [26]: 25%; kinase still bound, per cent of control [27]: 97%; kinase still bound, per cent of control [28]: 100%; kinase still bound, per cent of control [29]: 98%; kinase still bound, per cent of control [30]: 100%; kinase still bound, per cent of control [31]: 100%; kinase still bound, per cent of control [32]: 100%; kinase still bound, per cent of control [33]: 90%; kinase still bound, per cent of control [34]: 80%; kinase still bound, per cent of control [35]: 72%; kinase still bound, per cent of control [36]: 100%; kinase still bound, per cent of control [37]: 17%; kinase still bound, per cent of control [38]: 80%; kinase still bound, per cent of control [39]: 100%; kinase still bound, per cent of control [40]: 100%
CCCS(=O)(=O)Nc1ccc(F)c(C(=O)c2c[nH]c3ncc(Cl)cc23)c1F | 1.7% | 100% | 89% | 60% | 79% | 61% | 95% | 73% | 58% | 34% | 40% | 20% | 75% | 77% | 24% | 1% | 62% | 100% | 71% | 100% | kinase still bound, per cent of control [19]: 53%; kinase still bound, per cent of control [24]: 76%; kinase still bound, per cent of control [25]: 6%; kinase still bound, per cent of control [26]: 100%; kinase still bound, per cent of control [27]: 92%; kinase still bound, per cent of control [28]: 100%; kinase still bound, per cent of control [29]: 45%; kinase still bound, per cent of control [30]: 25%; kinase still bound, per cent of control [31]: 65%; kinase still bound, per cent of control [32]: 100%; kinase still bound, per cent of control [33]: 85%; kinase still bound, per cent of control [34]: 100%; kinase still bound, per cent of control [35]: 0.5%; kinase still bound, per cent of control [36]: 100%; kinase still bound, per cent of control [37]: 8.3%; kinase still bound, per cent of control [38]: 79%; kinase still bound, per cent of control [39]: 71%; kinase still bound, per cent of control [40]: 6.6%

Reference: the kinase profiling compilation of Christmann-Franck et al. (2016)
